Here are results for four compounds from US7157471B2, “Haloalkyl- and piperidine-substituted benzimidazole-derivatives” (Boehringer Ingelheim International GmbH, priority 2003, dated 2007).

Data set [1] has as its target T1, human chemokine receptor CCR-3 (Homo sapiens, UniProt P51677).
T1 construct: expressed in transfected cells; host or cells: K562 cell line (membranes)
T1 sequence (P51677 1-355): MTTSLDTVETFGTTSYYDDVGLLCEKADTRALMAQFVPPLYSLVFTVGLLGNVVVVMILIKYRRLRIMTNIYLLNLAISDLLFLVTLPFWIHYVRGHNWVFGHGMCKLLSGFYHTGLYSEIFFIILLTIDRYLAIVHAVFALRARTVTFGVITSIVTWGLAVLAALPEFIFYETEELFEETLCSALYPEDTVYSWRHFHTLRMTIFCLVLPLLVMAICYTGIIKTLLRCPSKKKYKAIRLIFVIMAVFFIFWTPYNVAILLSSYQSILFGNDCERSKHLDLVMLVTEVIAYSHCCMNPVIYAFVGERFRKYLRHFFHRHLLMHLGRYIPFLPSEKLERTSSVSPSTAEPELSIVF
Nature of the data set: CCR-3 receptor binding assay (SPA) with 125Jodine-eotaxin-1. As to conditions: membranes of hCCR-3 transfected K562 cells, radioligand 125J rhEotaxin, 2 hours incubation; read-out: Binding constants Ki (Eotaxin at CCR-3-Rezeptor). On the procedure:
The CCR-3 receptor binding test is based on a K562 cell line (leukemia myelogenic blast cells) transfected with the human chemokine receptor CCR-3 (hCCR-3-Cl). The cell membranes were prepared by disrupting the hCCR-3 transfected K562 cells by nitrogen […] and centrifugation at 40000 g, 4° C. for 1 h. The membranes were re-suspended in the SPA incubation buffer without bovine serum albumin for storage in aliquots at −80° C.
The CCR-3 receptor binding assay with the radioligand ^125Jodine-eotaxin-1 was performed in a Scintillation Proximity Assay (SPA) design. Cell membranes of hCCR-3 Cl cells were diluted in suitable concentrations (0.5–5 ug protein/well) in 96 well microtiter plates (1450–401, Wallac).
The test incubation mixture comprising 60 μl of the membrane suspension, 80 μl of the Wheat Germ Agglutinin coated PVT beads (organic scintillator, Amersham Pharmacia biotech) in a concentration of 0,4 mg and 40 μl of radiolabelled ^125J rhEotaxin (Amersham, IM290) were incubated with 20 μl of the test compound (dissolved in DMSO dilutions) for 2 hours. […] Bound radioactivity was determined by scintillation counter (Micro Beta “Trilux”, Wallac).
Determination of affinity of test compounds (dissociation constant Ki) was calculated by iterative fitting of experimental data using the law of mass action based program “easy sys” (Schittkowski, Num Math 68, 129–142 (1994)).

The structures appear in SMILES notation. Structures can show the parent of a compound that is named as a salt.

The compound `Fc1ccc(SCCCN2CCC(n3c(C(F)(F)C(F)(F)F)nc4cc(F)ccc43)CC2)cc1` (as salt: hydrochloride) [Example 6, 2-Pentafluoroethyl-5-fluoro-1-{1-[3-(4-fluoro-phenylsulfanyl)-propyl]-piperidin-4-yl}-1H-benzoimidazole] displayed a melting point of 208 to 209 °C.
The same measure, in the same setting: for `Fc1ccc(SCCCN2CCC(n3c(CC(F)(F)F)nc4cc(F)ccc43)CC2)cc1` (as salt: hydrochloride) [Example 10, 2-(2,2,2-Trifluoroethyl)-5-fluoro-1-{1-[3-(4-fluoro-phenylsulfanyl)-propyl]-piperidin-4-yl}-1H-benzoimidazole] the value was 158 to 160 °C.
Take `Fc1ccc(SCCCN2CCC(n3c(C(F)(F)C(F)(F)F)nc4cc(F)ccc43)CC2)cc1` [Example 6, 2-Pentafluoroethyl-5-fluoro-1-{1-[3-(4-fluoro-phenylsulfanyl)-propyl]-piperidin-4-yl}-1H-benzoimidazole]: the Ki in data set [1] turned out to be 110 nM.
As for `Fc1ccc(SCCCN2CCC(n3c(CC(F)(F)F)nc4cc(F)ccc43)CC2)cc1` [Example 10, 2-(2,2,2-Trifluoroethyl)-5-fluoro-1-{1-[3-(4-fluoro-phenylsulfanyl)-propyl]-piperidin-4-yl}-1H-benzoimidazole], the Ki in data set [1] was 19 nM.

The melting point is the temperature, or range, at which the solid turns liquid. As usually defined, the Ki is a measure of affinity in units of concentration, obtained from inhibition or displacement.
